Results from patent US8420679B2, “Aminothiazole derivatives and their use as CRF receptor ligands” (Sanofi, priority 1999, dated 2013).
Structures can show the parent of a compound that is named as a salt.

SMILES | melting point
C=CCN(c1nc(-c2ccc(OC)cc2Cl)c(C)s1)C(COC)c1ccccc1 (centres unmarked) (as salt: hydrochloride) (hydrate or solvate) [Example 23, Allyl-[4-(2-chloro-4-methoxyphenyl)-5-methylthiazol-2-yl]-(2-methoxy-1-phenylethyl)amine] | 70 °C
CC#CCN(c1nc(-c2ccc(OC)cc2Cl)c(C)s1)C(COC)c1ccccc1 (centres unmarked) (as salt: hydrochloride) (hydrate or solvate) [Example 24, But-2-ynyl-[4-(2-chloro-4-methoxyphenyl)-5-methylthiazol-2-yl]-[2-methoxy-1-phenylethyl]amine] | 70 °C
